From patent publication US10118929B2, “Nonanoic and decanoic acid derivatives and uses thereof” (SciFluor Life Sciences, Inc., priority 2016, dated 2018)

Experiments:
αvβ8 = αvβ8 (Homo sapiens (Human), UniProt P06756+P26012); test: αVβ8-LAP-TGF β1 integrin binding assay (integrin coupled beads, flow cytometry); conditions: for IC50: ligand LAP-TGF β1 20 nM, integrin 10 nM
Procedure: (§1) αVβ6/αVβ8-LAP-TGF β1 Binding Assay
(§2) Integrins αVβ6/αVβ8 coupled beads are treated with an αVβ6/αVβ8 ligand (e.g., LAP TGF-β1 (LAP1)), and the complex is incubated with a primary antibody (Ab), which can be labeled for detection (e.g., fluorescently labeled), and optionally with a secondary antibody, which can be labeled for detection (e.g., fluorescently labeled). Reaction between integrin coupled beads and the ligand was considered as the full reaction, and reaction without the ligand or a compound of the disclosure was considered as the blank reaction. The complex is analyzed, e.g., by either plate reader or Flow Cytometer, to determine modulation of binding between αVβ6/αVβ8 and the ligand (e.g., LAP-TGF β1) by the compounds of the present application.
All αv Integrins are known to bind to proteins with a RGD motif. Two RGD ligands were used in this study: Vitronectin (VN) as a ligand for αvβ3 and αvβ5 (Wayner et al., J. Cell Biol., 113 (4), 919-929, 1991), and LAP TGF-β1 (LAP1) as a ligand for αvβ6 and αvβ8 (Rognoni et al., Nat. Med., 20(4): 350-359, 2014). CWHM12 was used as a positive control for αvβ6 and αvβ8 (Henderson et al., Nat. Med. 19(12), 10.1038/nm.3282 2013), and Cilengitide as a positive control for αvβ3 and αvβ5 (Kumar et al., J. Pharmacol. Exp. Ther., 283, 843-853, 1997).
The integrin coupled Dyna beads were allowed to interact with respective ligands. The integrin-ligand complex was detected with either Primary/Secondary Antibody conjugated with Fluorescein Isothiocyanate (FITC). For αvβ3 and αvβ5, Vitronectin was used as a ligand and a primary antibody conjugated with FITC (Anti-VN-FITC Ab) was used to detect the interaction. For αvβ6 and αvβ8, LAP-TGF β1 was used as ligand and a primary antibody against LAP1 (Anti-LAP1 Ab) and a secondary antibody conjugated with FITC were used to detect the αv β6/αvβ8-LAP-TGF β1 complex. Fluorescence was measured by Flow Cytometry analysis.
5 mg of Dyna beads were weighed in a low protein binding microfuge (Eppendorf) tube (1.5 mL volume). The beads were re-suspended in 1 mL of Sodium Phosphate Buffer and vortexed at high speed for 30 seconds. The tube was then placed in a tube roller and tilt rotated for 10 min. After tilt rotation, the tube was placed on the Magna Spin and the beads were allowed to settle. The supernatant was discarded and the beads were washed three times. The beads were then re-suspended in 100 μL of Sodium Phosphate Buffer and 20 μL of washed beads were distributed into 5 low protein binding Eppendorf tubes (1 mg of beads in each tube). The beads were used for coupling integrins. […]
(§3) The tubes were taken out and subjected to a quick spin. […] The amount of protein bound to beads was quantified by measuring the sum of protein left in the Supernatant, W1, W2, W3 and W4 through the Micro BCA method. […]

αvβ6 = αvβ6 (Homo sapiens (Human), UniProt P06756+P18564); test: αVβ6-LAP-TGF β1 integrin binding assay (integrin coupled beads, flow cytometry); conditions: ligand LAP-TGF β1 10 nM; integrin 10 nM
Chain of αvβ6 (P06756 31-992): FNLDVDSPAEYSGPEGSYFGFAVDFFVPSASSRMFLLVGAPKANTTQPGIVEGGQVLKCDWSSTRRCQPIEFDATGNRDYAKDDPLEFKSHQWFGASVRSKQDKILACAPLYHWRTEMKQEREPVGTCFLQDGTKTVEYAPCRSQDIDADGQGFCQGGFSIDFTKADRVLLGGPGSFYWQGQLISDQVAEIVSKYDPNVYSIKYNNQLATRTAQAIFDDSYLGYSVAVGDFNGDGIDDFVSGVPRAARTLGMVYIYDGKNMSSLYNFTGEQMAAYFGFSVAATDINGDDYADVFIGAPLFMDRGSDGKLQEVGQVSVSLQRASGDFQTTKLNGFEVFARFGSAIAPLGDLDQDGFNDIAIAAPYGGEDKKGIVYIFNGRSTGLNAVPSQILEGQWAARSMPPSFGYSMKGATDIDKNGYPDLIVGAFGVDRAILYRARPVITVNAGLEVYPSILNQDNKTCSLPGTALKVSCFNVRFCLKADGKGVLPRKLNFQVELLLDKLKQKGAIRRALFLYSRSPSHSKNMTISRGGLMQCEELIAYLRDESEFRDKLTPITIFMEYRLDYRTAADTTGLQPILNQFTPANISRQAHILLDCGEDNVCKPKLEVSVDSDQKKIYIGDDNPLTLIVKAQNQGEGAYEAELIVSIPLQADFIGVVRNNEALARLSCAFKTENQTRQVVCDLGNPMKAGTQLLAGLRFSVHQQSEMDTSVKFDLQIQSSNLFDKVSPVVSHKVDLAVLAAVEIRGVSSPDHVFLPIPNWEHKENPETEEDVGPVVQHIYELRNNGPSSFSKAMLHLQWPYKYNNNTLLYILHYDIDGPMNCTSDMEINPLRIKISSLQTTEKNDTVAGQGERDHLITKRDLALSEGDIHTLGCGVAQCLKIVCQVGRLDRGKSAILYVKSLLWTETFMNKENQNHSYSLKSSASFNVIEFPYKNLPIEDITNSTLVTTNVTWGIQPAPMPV
Chain of αvβ6 (P18564 22-707): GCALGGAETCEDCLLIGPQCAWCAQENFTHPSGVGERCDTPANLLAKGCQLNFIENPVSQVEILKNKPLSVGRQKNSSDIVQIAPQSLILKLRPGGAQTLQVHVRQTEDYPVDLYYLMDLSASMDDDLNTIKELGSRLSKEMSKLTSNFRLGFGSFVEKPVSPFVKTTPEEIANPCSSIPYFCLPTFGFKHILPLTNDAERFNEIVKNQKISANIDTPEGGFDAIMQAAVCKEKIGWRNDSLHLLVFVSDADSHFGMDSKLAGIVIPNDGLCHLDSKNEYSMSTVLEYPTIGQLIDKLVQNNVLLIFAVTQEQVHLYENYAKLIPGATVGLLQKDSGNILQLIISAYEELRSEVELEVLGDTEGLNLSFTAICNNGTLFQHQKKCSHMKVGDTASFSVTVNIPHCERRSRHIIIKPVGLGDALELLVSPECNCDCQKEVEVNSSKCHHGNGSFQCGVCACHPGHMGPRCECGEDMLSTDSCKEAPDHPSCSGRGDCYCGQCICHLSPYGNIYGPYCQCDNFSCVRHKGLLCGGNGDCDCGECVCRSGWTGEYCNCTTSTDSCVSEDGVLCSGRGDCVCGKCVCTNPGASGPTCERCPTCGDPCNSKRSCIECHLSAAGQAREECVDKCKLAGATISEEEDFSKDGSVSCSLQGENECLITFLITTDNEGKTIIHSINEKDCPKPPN
Procedure: as §1, §2
All αv Integrins are known to bind to proteins with a RGD motif. […]
The integrin coupled Dyna beads were allowed to interact with respective ligands. The integrin-ligand complex was detected with either Primary/Secondary Antibody conjugated with Fluorescein Isothiocyanate (FITC). […] Fluorescence was measured by Flow Cytometry analysis. […]
as §3

Chain of αvβ8 (P06756 31-992): as the sequence (P06756 31-992) above
Chain of αvβ8 (P26012 43-684): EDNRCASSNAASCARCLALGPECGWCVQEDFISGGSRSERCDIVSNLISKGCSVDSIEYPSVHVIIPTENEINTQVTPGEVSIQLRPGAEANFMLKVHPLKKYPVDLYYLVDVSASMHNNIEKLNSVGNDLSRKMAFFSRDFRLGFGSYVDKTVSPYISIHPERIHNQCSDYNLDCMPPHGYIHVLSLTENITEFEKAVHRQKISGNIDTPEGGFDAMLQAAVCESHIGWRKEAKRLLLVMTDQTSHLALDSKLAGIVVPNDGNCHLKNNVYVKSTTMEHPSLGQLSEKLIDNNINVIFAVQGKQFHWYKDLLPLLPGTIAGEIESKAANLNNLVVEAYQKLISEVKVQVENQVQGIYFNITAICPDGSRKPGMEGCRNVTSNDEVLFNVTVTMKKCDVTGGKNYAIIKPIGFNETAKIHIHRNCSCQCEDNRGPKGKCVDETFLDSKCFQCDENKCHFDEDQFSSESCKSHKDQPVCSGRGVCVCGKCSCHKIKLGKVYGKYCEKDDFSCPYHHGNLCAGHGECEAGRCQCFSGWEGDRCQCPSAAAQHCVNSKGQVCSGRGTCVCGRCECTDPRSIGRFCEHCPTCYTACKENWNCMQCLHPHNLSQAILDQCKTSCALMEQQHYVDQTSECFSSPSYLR

Row | IC50 (αvβ8) | αvβ8/αvβ6 (αvβ8; ratio of αvβ8 IC50 to αvβ6 IC50) | IC50 (αvβ6) | SMILES
1 | 50.4 nM | 0.13 | 376 nM | O=C(O)CC(c1cccc(C(F)(F)F)c1)N1CCN(CCCCNc2nc3ccccc3[nH]2)C1=O (stereo not drawn) [Compound A1, 3-(3-(4-((1H-benzo[d]imidazol-2-yl)amino)butyl)-2-oxoimidazolidin-1-yl)-3-(3-(trifluoromethyl)phenyl)propanoic acid]
2 | 622 nM |  |  | O=C(O)CC(c1cccc(C(F)(F)F)c1)N1CCN(CCCCNC2=NCc3ccccc3C2)C1=O (stereo not drawn) [Compound A8]
3 | 232 nM |  | 394 nM | O=C(O)CC(c1cccc(C(F)(F)F)c1)N1CCN(CCCCNc2ccccn2)C1=O (stereo not drawn) [Compound A10]
